Publication PMC8151276, “An Integrated Approach toward NanoBRET Tracers for Analysis of GPCR Ligand Engagement” (Molecules, 2021)

Key:
Type in all cases: binding
SSTR1 = target: T1, SSTR1 (Homo sapiens, UniProt P30872); assay: NanoBRET screen HiBiT-SSTR1 in HEK293
T1 construct: purchased Promega (in-house HiBiT-GPCR construct library, NanoBRET)
Description: (§1) Each tracer candidate was screened across the entire library of HiBiT-GPCR constructs using NanoBRET as the detection modality. As depicted in Figure 4A, the specificity of interactions was evaluated through decrease in BRET due to competitive displacement of a bound tracer by excess parental compound. Each tracer was analyzed for binding to each HiBiT-GPCR fusion in the absence and in the presence of competing parental compound. Briefly, HEK293 cells were transfected with HiBiT-GPCR constructs diluted into promoterless DNA to reduce expression and maximize translocation to the cell surface. Each tracer candidate was then screened at concentrations of 1 μM and 0.1 μM across cells expressing these fusions. Cells were treated for 1.5 h with tracer either alone or in the presence of 20 μM competing parental compound (i.e., control). BRET was measured upon addition of purified LgBiT and subsequent complementation with HiBiT genetically fused to a GPCR. The specificity of interactions was assessed through a decrease in BRET signal due to competitive displacement of the bound tracer. To further gauge the robustness of these interactions, the fold response over the control (i.e., BRETtracer/BRETcontrol) was calculated. We chose a 1.5-fold response, which translates to ≥7-fold signal over noise as the minimal threshold required to score an interaction as positive. […]. Below we highlight the screening results obtained for our exemplary fluorescent tracers based on Clozapine, Amitriptyline and AZD1283.
(§2) HiBiT-GPCR DNA constructs were diluted in 10 mM Tris pH 8 to a final concentration of 0.01 μg/μL, arrayed in 96-well plates and stored at −20 °C. For transfection, HEK293 cells were suspended in Opti-MEM (without phenol red) supplemented with 2% fetal bovine serum (Seradigm) and 100 units/mL penicillin–streptomycin (Gibco) at a final concentration of 220,000 cells/mL and dispensed into white 96-well plates at 90 μL/well. Subsequent transfections and screens were carried using an Agilent Bravo Automated Liquid Handling Platform. First, the 96-well HiBiT DNA arrays were diluted 25-fold in Opti-MEM (without serum or phenol red) to a final concentration of 0.0004 μg/μL and 20 μL of the diluted DNAs were transferred into new 96-well plates. Next, promoterless carrier DNA (1 μg/μL) was diluted 25-fold (0.04 μg/μL) and then dispensed into the diluted arrays at 20 μL/well. Following brief mixing, Viafect transfection reagent (Promega) diluted 16-fold into Opti-MEM was dispensed into the plates at 40 μL/well. After mixing by pipetting, plates were incubated for 10 min on the pipetting station deck. The DNA-transfection reagent complexes were then added to plates containing cells. To facilitate the screen, 10 μL of DNA-transfection reagent complexes were added in duplicates to the top 4 and bottom 4 rows, resulting in two identical 48-well arrays per plate. Plates with transfected cells were incubated for 18–20 h at 37 °C/5% CO2. A screen of each tracer across the entire library using two different concentrations requires duplicate plates of transfected cells. Depending on the number of tracers being screened, transfections can be scaled up using the same ratios. The next day, for each tracer, four 20× screening solutions in tracer dilution buffer (Promega) were prepared: two duplicates at final concentration of 20 μM and two duplicates at a final concentration of 2 μM. A competing unmodified compound was added to one of each duplicate at a final concentration of 400 μM. The four resulting solutions were diluted 4-fold in Opti-MEM without serum or phenol red to generate 5× solutions (5 µM and 0.5 µM tracer +/− 100 μM competing compound). To screen the library, a BioTek MultiFlo FX liquid dispenser was used to dispense 22.5 µL of tracer solution to the top 4 rows and 22.5 µL tracer + competing compound solution to the 4 bottom rows. Plates were briefly mixed on an orbital shaker and incubated for 1.5 h at room temperature. […]

MCHR1 = target: T2, MCHR1 (Homo sapiens, UniProt Q99705); assay: NanoBRET screen HiBiT-MCHR1 in HEK293
T2 construct: purchased Promega (in-house HiBiT-GPCR construct library, NanoBRET)
Description: as §1, §2

AVPR2 = target: T3, AVPR2 (Homo sapiens, UniProt P30518); assay: NanoBRET screen HiBiT-AVPR2 in HEK293
T3 construct: purchased Promega (in-house HiBiT-GPCR construct library, NanoBRET)
Description: as §1, §2

[1] = tracer at 1μM, listed as amitriptyline-b-2-NB590
[2] = tracer at 0.1μM, listed as amitriptyline-b-2-NB590

T3 sequence (P30518 whole entry): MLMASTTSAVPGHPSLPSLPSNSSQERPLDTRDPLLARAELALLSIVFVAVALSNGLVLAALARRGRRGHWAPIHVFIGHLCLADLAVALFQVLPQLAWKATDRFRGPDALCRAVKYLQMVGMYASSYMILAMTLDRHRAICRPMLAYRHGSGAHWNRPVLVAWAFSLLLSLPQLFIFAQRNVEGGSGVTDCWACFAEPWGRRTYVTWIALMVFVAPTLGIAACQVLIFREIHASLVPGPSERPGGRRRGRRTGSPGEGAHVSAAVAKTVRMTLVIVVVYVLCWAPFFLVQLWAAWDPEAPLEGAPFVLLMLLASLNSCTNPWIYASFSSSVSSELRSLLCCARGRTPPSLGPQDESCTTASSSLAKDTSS
T2 sequence (Q99705 whole entry): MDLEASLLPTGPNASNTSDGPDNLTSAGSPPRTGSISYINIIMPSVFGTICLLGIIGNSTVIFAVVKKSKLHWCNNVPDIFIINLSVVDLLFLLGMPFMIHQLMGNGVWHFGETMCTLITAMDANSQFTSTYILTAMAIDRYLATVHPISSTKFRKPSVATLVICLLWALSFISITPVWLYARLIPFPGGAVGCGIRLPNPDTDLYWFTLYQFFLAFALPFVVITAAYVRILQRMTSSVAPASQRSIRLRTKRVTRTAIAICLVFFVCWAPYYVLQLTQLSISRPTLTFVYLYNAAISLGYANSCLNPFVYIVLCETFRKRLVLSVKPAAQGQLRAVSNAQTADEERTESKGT
T1 sequence (P30872 whole entry): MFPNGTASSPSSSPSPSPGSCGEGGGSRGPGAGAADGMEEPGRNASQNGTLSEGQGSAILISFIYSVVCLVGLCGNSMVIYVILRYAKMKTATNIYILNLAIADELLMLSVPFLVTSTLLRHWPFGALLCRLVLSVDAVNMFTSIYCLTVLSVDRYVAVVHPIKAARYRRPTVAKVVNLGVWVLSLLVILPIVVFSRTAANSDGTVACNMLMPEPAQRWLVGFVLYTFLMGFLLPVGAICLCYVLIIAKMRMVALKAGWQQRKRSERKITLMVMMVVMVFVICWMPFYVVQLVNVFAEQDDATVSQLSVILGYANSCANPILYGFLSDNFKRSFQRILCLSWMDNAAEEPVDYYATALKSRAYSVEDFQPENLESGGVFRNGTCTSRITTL

| SMILES | NanoBRET Fold Response (SSTR1; SSTR1, tracer 0.1μM) | NanoBRET Fold Response (SSTR1; SSTR1, tracer 1μM) | NanoBRET Fold Response (MCHR1; MCHR1, tracer 1μM) | NanoBRET Fold Response (AVPR2; AVPR2, tracer 0.1μM) | NanoBRET Fold Response (AVPR2; AVPR2, tracer 1μM) | NanoBRET Fold Response (MCHR1; MCHR1, tracer 0.1μM) | other results |
| --- | --- | --- | --- | --- | --- | --- | --- |
| CN(C)CCC=C1c2ccccc2CCc2ccc(C(=O)NCCNC(=O)CCOCCOCCOCCOCCNC(=O)CCc3ccc4n3[B-](F)(F)[N+]3=C(c5ccc[nH]5)C=CC3=C4)cc21 [Amitriptyline-b-2-NB590] |  |  |  |  |  |  | NanoBRET Fold Response (SSTR1; [1]): 1.07; NanoBRET Fold Response (MCHR1; [2]): 0.79; NanoBRET Fold Response (MCHR1; [1]): 1.01; NanoBRET Fold Response (AVPR2; [2]): 1.13; NanoBRET Fold Response (AVPR2; [1]): 0.89 |
| COc1ccccc1N1CCN(CCCCN2C(=O)c3ccc(CNC(=O)CCOCCOCCOCCOCCNC(=O)CCc4ccc5n4[B-](F)(F)[N+]4=C(c6ccc[nH]6)C=CC4=C5)cc3C2=O)CC1 [NAN-190-2-NB590] | 0.94 | 1.08 | 0.93 | 1.00 | 0.98 |  |  |
| O=C(CCOCCOCCOCCOCCNC(=O)CCc1ccc2n1[B-](F)(F)[N+]1=C(c3ccc[nH]3)C=CC1=C2)NCCCN1CCN(C2=Nc3ccccc3Oc3ccc(Cl)cc32)CC1 [Loxapine-a-2-NB590] | 1.06 | 1.30 | 1.20 | 1.04 | 1.05 | 1.03 |  |
| CCCn1c(=O)c2[nH]c(-c3ccc(OCC(=O)NCCNC(=O)CCOCCNC(=O)c4ccc(CNC(=O)CCc5ccc6n5[B-](F)(F)[N+]5=C(c7ccc[nH]7)C=CC5=C6)cc4)cc3)nc2n(CCC)c1=O [XAC-3-NB590] | 0.98 | 1.05 | 1.03 | 0.73 | 0.91 | 1.01 |  |
| CN(C)CCC=C1c2ccccc2CCc2ccc(C(=O)NCCNC(=O)CCOCCOCCOCCOCCNC(=O)CCc3ccc4n3[B-](F)(F)[N+]3=C(c5ccc[nH]5)C=CC3=C4)cc21 [Amitriptyline-a-2-NB590] |  |  |  |  |  |  | NanoBRET Fold Response (SSTR1; tracer at 0.1μM): 1.30; NanoBRET Fold Response (SSTR1; tracer at 1μM): 1.28; NanoBRET Fold Response (MCHR1; tracer at 0.1μM): 1.01; NanoBRET Fold Response (MCHR1; tracer at 1μM): 1.09; NanoBRET Fold Response (AVPR2; tracer at 0.1μM): 0.95; NanoBRET Fold Response (AVPR2; tracer at 1μM): 1.05 |
| CCOC(=O)c1cc(C#N)c(N2CCC(C(=O)NS(=O)(=O)Cc3ccccc3/C=C/C(=O)NCCNC(=O)CCc3ccc4n3[B-](F)(F)[N+]3=C(c5ccc[nH]5)C=CC3=C4)CC2)nc1C [AZD1283-1-NB590] |  |  |  |  |  |  | NanoBRET Fold Response (SSTR1; SSTR1, 0.1μM): 1.08; NanoBRET Fold Response (SSTR1; SSTR1, 1μM): 1.10; NanoBRET Fold Response (MCHR1; MCHR1, 0.1μM): 1.00; NanoBRET Fold Response (MCHR1; MCHR1, 1μM): 1.08; NanoBRET Fold Response (AVPR2; AVPR2, 0.1μM): 1.03; NanoBRET Fold Response (AVPR2; AVPR2, 1μM): 1.05 |
